Format in all cases: cell-based
In data set [1] the test system is Human Heme Oxygenase-1 (HMOX-1). In words: ELISA assay to measure human heme oxygenase-1 (HMOX-1) in HepG2 lysate. Particulars: fold change of human HMOX1 protein levels relative to DMSO control, HepG2. An outline of the steps: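 HO-1 protein quantified by chemiluminescent sandwich ELISA against a 2-fold standard series starting at 20 ng/ml. Samples were 1:20-diluted HepG2 lysates made in Triton X-100/EDTA buffer with protease inhibitors. Capture antibody coated at 8 μg/ml, detection antibody used at 200 ng/ml, room-temperature (20 °C) steps.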
(An ELISA detects its analyte on a solid surface through an enzyme-linked reagent.)

In data set [2] the test system is Primary human pulmonary artery endothelial cells (HPAEC). In words: Glutathione (GSH) levels in primary human endothelial cells under hemin stress. The method, then: Example 149. Glutathione (GSH) Levels in Primary Human Endothelial Cells
Primary human pulmonary artery endothelial cells (HPAEC) (Lonza #CC-2530) cultured in endothelial cell growth medium-2 (EGM2 media, Lonza #CC-3162) were seeded in white 96-well plate (Corning® #3610) at 12.5 k cells per well and placed at 37° C. in 5% CO2. 18-24 hr post seeding, cells were treated with the compound of Example 17 via media change. 24 hr post treatment with the compound, cells were treated using a freshly prepared hemin stock (Sigma-Aldrich #51280 in 0.1N NaOH) alone or with the compound of Example 17. […] Media was aspirated off and GSH-Glo™ Glutathione Assay (Promega #V6911) was run following the manufacturer's protocol. White bottom plate seal (PerkinElmer #6005199) was used during read. Analysis was done using Softmax Pro.

The test system of a further data set is VCAM-1. The data set is described as follows: VCAM-1 gene expression in TNFα-stimulated primary human endothelial cells. Particulars: HPAEC. The source says: Example 150. Gene Expression in Primary Human Endothelial Cells
Inflammatory conditions in endothelial cells increase expression of adhesion molecules, such as VCAM-1, ICAM-1 and E-selectin through NF-kB signaling. HMOX1 −/− endothelial cells show increased expression of VCAM-1 in response to TNF stimulation, as compared to HMOX +/+endothelial cells. See Seldon et al., J Immunol Dec. 1, 2007, 179 (11) 7840-7851.
Primary human pulmonary artery endothelial cells (HPAEC) (Lonza #CC-2530) were seeded in 12-well plates (TrueLine #TR5001) at 200 k cells per well and placed at 37° C. in 5% CO2. 18-24 hr post seeding, cells were treated with the compound of Example 17 via media change. 24 hr post treatment with the compound, cells were treated with 10 ng/mL TNFα (Invitrogen #PHC3015 in H2O) alone or with the compound of Example 17. […] 20ng cDNA was mixed with water, iQ™ SYBR® Green Supermix (BioRad #170-8886), and 300 nM primer (IDT #NM_001078) for a total 10ul reaction and loaded into 384-well white qPCR plates and subsequently analyzed using BioRad CFX384. […] To calculate fold change, the ΔCt on a per sample basis was calculated as Ct (Gene of interest)—Ct (Average of reference genes). The ΔΔCt was then calculated as ΔCt (experimental sample)—Average ΔCt (control group). […]

The structures appear in SMILES notation.

Consider `Cn1c(Nc2nc3ccccc3o2)nc2cc(C(=O)NCCOCCO)ccc21` [Example 17, 2-(benzo[d]oxazol-2-ylamino)-N-(2-(2-hydroxyethoxy)ethyl)-1-methyl-1H-benzo[d]imidazole-5-carboxamide], for which the “Maximum Fold induction” value in data set [1] is recorded as 11-40. In addition, in data set [2] (24 hr pre-incubation, 30 min hemin stress), the “GSH levels / protection from hemin mediated oxidative stress” value is recorded as “protects these cells from hemin mediated oxidative stress”. Moreover, the “toxicity, visual inspection of cells” value (in data set [2] (after 30 min of hemin stress); with VCAM-1 (after 4 hours of TNFα treatment)) was “no toxicity being noted” throughout. Further, in the data set on VCAM-1 (24 hr pre-treatment, 10 ng/mL TNFα 4 hours), the “TNF-α mediated endothelial cell activation (VCAM-1 expression)” value was “reduced this TNF-α mediated endothelial cell activation”.
